What all share (experiment): drug sensitivity score (DSS2, normalised partial AUC of dose-response, 72 h CellTiter-Glo viability) (DSS (dimensionless)); higher = more sensitive (stronger growth inhibition / cytotoxicity); extreme values may be limits of the assay
(In general: ATP-based viability assays read luminescence as a measure of living cells.)

In assay [1] the test system is CAF#1 (primary prostate cancer-associated fibroblasts of myCAF-like type). The method, boiled down:
(§1)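 The drug sensitivity score reported here is a partial area under the fitted logistic dose–response curve, divided by the log of the curve's upper asymptote and computed in BREEZE; higher values denote greater sensitivity. Low-passage primary prostate cancer-associated fibroblasts, PF179T, WPMY-1, LNCaP and 22Rv1 cells were seeded into 384-well plates preloaded with compounds at five doses across a 10,000-fold range. CellTiter-Glo 2.0 luminescence gave viability at 72 h, scaled to vehicle and positive-control wells.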

For assay [2], the system named is CAF#7 (primary prostate cancer-associated fibroblasts of myCAF-like type). The method, boiled down:
as §1

The test system of assay [3] is CAF#3 (primary prostate cancer-associated fibroblasts of myCAF-like type). The method, boiled down: as §1
In assay [4] the test system is CAF#2 (primary prostate cancer-associated fibroblasts of iCAF-like type). The method, boiled down:
as §1

The test system of assay [5] is PF179T. The method, boiled down:
as §1

Assay [6] deals with CAF#6 (primary prostate cancer-associated fibroblasts of iCAF-like type). The method, boiled down:
as §1

Assay [7] deals with CAF#4 (primary prostate cancer-associated fibroblasts of iCAF-like type). The method, boiled down:
as §1

The subject of assay [8] is CAF#5 (primary prostate cancer-associated fibroblasts of myCAF-like type). The method in brief: as §1
For assay [9], the system named is 22Rv1. The method, boiled down:
as §1

Assay [10] has as its system LNCAP. The method in brief:
as §1

Assay [11] concerns WPMY-1. The method in brief: as §1

Each structure is given as a SMILES string.

For the compound `CC[C@]1(O)C[C@@H]2CN(CCc3c([nH]c4ccccc34)[C@@](C(=O)OC)(c3cc4c(cc3OC)N(C)[C@H]3[C@@](O)(C(=O)OC)[C@H](OC(C)=O)[C@]5(CC)C=CCN6CC[C@]43[C@@H]65)C2)C1` [Vinblastine] (tested concentration range 0.1-1000 nM), the drug sensitivity score in [1] worked out at 4.1; in assay [2], 7.5; in assay [3], 2.8; in assay [4] it was 5.6; in assay [5] it was 5.9; in assay [6], 5.1. The drug sensitivity score came to 3.6 in [7]; 5.2 in assay [8]; 7.7 in assay [9]; 24.7 in assay [10]; 11.9 in assay [11].
Take `CC[C@]1(O)C[C@H]2CN(CCc3c([nH]c4ccccc34)[C@@](C(=O)OC)(c3cc4c(cc3OC)N(C=O)[C@H]3[C@@](O)(C(=O)OC)[C@H](OC(C)=O)[C@]5(CC)C=CCN6CC[C@]43[C@@H]65)C2)C1` [Vincristine] (tested concentration range 0.1-1000 nM): the drug sensitivity score in assay [1] is 4.4; in [2], 11.5; in assay [3], 4.7; in assay [4], 5.1; in [5], 4.5; in [6] it was 5.6. In addition, the drug sensitivity score stood at 2 in assay [7]; 4.3 in assay [8]; 12.3 in [9]; 26 in assay [10]; 12.1 in assay [11].
In the case of `CC[C@]12C=CCN3CC[C@@]4(c5cc([C@@]6(C(=O)OC)C[C@@H]7C[C@@H](C(C)(F)F)CN(Cc8c6[nH]c6ccccc86)C7)c(OC)cc5N(C)[C@H]4[C@@](O)(C(=O)OC)[C@@H]1OC(C)=O)[C@@H]32` [Vinflunine] (tested concentration range 0.1-1000 nM), the drug sensitivity score in assay [1] was found to be 0.9; in assay [2], 4.4; in assay [3] it was 2; in [4], 0.9; in assay [5], 3.8; in assay [6] it was 2.4. Further, the drug sensitivity score in [7] amounted to 0.1; in assay [8], 1.1; in assay [9], 4.8; in assay [10] it was 4.3; in assay [11], 5.5.
As for `CCC1=C[C@@H]2CN(C1)Cc1c([nH]c3ccccc13)[C@@](C(=O)OC)(c1cc3c(cc1OC)N(C)[C@H]1[C@@](O)(C(=O)OC)[C@H](OC(C)=O)[C@]4(CC)C=CCN5CC[C@]31[C@@H]54)C2` [Vinorelbine] (tested concentration range 1-10000 nM), the drug sensitivity score was 17.3 in assay [1]; 26 in assay [2]; 15.3 in assay [3]; 20.1 in assay [4]; 19.7 in assay [5]; 19.6 in [6]. The drug sensitivity score in [7] is 12.6; in [8], 18.1; in assay [9], 31.3; in assay [10] it was 42; in assay [11], 36.9.
As to `CS(=O)(=O)c1ccc(C(=O)Nc2ccc(Cl)c(-c3ccccn3)c2)c(Cl)c1` [Vismodegib] (tested concentration range 1-10000 nM), the drug sensitivity score in [1] was determined as 0; in [2] it was 0; in assay [3], 1.5; in assay [4] it was 0; in [5] it was 0; in [6], 0. Besides, the drug sensitivity score was found to be 0 in [7]; 0 in [8]; 0 in assay [9]; 0.2 in [10]; 0 in assay [11].
In the case of `CNC(=O)c1cccc(-c2ccc3c(N4CCOC[C@@H]4C)nc(N4CCOC[C@@H]4C)nc3n2)c1` [Vistusertib] (tested concentration range 1-10000 nM), the drug sensitivity score in [1] came out at 17.7; in [2] it was 14.4; in assay [3], 14.8; in assay [4], 15.8; in assay [5], 16.2; in assay [6] it was 14. In addition, the drug sensitivity score was found to be 17.9 in [7]; 19.6 in [8]; 19.9 in assay [9]; 19.4 in assay [10]; 13.7 in [11].
Take `CC[C@@H]1C(=O)N(C)c2cnc(Nc3ccc(C(=O)N[C@H]4CC[C@H](N5CCN(CC6CC6)CC5)CC4)cc3OC)nc2N1C(C)C` [Volasertib] (tested concentration range 0.1-1000 nM): the drug sensitivity score in assay [1] is 0.4; in [2], 2.9; in assay [3], 4.2; in [4] it was 5.1; in assay [5], 5.9; in assay [6] it was 1.9. For the same compound, the drug sensitivity score worked out at 0 in assay [7]; 1.7 in assay [8]; 14.9 in assay [9]; 19.3 in [10]; 11.4 in [11].
For `O=C(CCCCCCC(=O)Nc1ccccc1)NO` [Vorinostat] (tested concentration range 1-10000 nM), the drug sensitivity score in assay [1] turned out to be 4; in assay [2] it was 3.1; in [3] it was 6.3; in [4] it was 6.5; in assay [5] it was 3.4; in assay [6] it was 4.2. For the same compound, the drug sensitivity score in [7] stood at 4.9; in assay [8], 4.1; in assay [9], 9.7; in assay [10] it was 10; in [11], 9.7.
As to `Oc1nc(-c2ccc(C(F)(F)F)cc2)nc2c1CSCC2` [XAV-939] (tested concentration range 1-10000 nM), the drug sensitivity score in [1] amounted to 2.6; in assay [2], 4.3; in assay [3] it was 2.5; in assay [4] it was 5.4; in [5] it was 2.6; in assay [6], 4. The drug sensitivity score in assay [7] was determined as 2.6; in [8], 4.1; in assay [9], 0; in assay [10] it was 2.1; in [11] it was 0.
For `Cc1sc2c(c1C)C(c1ccc(Cl)cc1)=N[C@@H](CC(=O)NCCCCNC(=O)COc1cccc3c1C(=O)N(C1CCC(=O)NC1=O)C3=O)c1nnc(C)n1-2` (stereo not given in full) [dBET1] (tested concentration range 1-10000 nM), the drug sensitivity score in assay [1] stood at 4.5; in assay [2] it was 14.2; in assay [3], 12; in [4], 2.7; in [5], 0.2; in assay [6], 9.1. Moreover, the drug sensitivity score was found to be 6.3 in assay [7]; 8.2 in assay [8]; 12 in [9]; 9.1 in assay [10]; 6 in assay [11].

These data come from the supplement of paper PMC12592484.
